Values of other authors, collected in patent US11033514B2 (priority 2016, dated 2021).

[1] = Nguyen et al. (2009), oral dose 5 grams

Half life in blood (in vivo, po)	Plasma level (in vivo, po)	Half-Life (Goldberg et al. (2003), oral dose 25 mg)	% of orally administered dose of resveratrol bioavailable [1]	Unconjugated/Free Resveratrol in plasma (Bioavailability) [1]	Compound
30 min	5 to 40 nmol/L				Oc1ccc(/C=C/c2cc(O)cc(O)c2)cc1 [Synthetic resveratrol]
		2 h	(0.012% of orally	2400 nmol/L	Oc1ccc(/C=C/c2cc(O)cc(O)c2)cc1 [resveratrol, 3,5,4′-trihydroxy-trans-stilbene]
